“Also recorded” adds a separate entry of the source. Where a name gives a salt, the structure may show the parent alone.
Tests used:
[1] = test system: HCT116 cells; test: Screening for enhancers of IR-mediated cellular cannibalism (imaging flow cytometry, confocal microscopy validation); assay type: cell-based, human; settings: 8 Gray, 10 μM compound, 24 hours of culture
Procedure: FIG. 4 Identification of cannibalism modulators triggered by ionizing radiation. Compounds from the Prestwick (A) and CEA (F) libraries were tested for their capacities to induce cellular cannibalism after ionizing radiation. Cannibal cells were detected after homotypic cultures of 8 gray γ-irradiation HCT116 cells in the presence or absence of […] of the Prestwick (A) and CEA […] library compounds. Each dot represents one compound. Representative images are shown in (B, G). (C, H) HCT116 cells were treated with the indicated drugs. After 24 h of treatment, cell death was monitored by staining with 3,3 dihexyloxacarbocyanine iodide (DiOC6(3)) and PI, and the percentage of dying (DiOC6(3)^low PI^−, open bars) and dead (DiOC6(3)^low PI^+, closed bars) cells was determined by cytofluorometry. Validation of the cannibalism inducers by fluorescent microscopy. Representative images (D, I) and quantification (E, J) are shown. Results are means±s.e.m. of triplicate determinations.
Then, the screening of a library of chemical compounds was developed in order to identify compounds able to induce IR-mediated cellular cannibalism. Thus, HCT116 cells that have been treated with a radiation dose of 8 Gray were stained either with orange CMTMR cell tracker or green CMFDA cell tracker and cultivated in presence of 10 μM of chemical compounds. After 24 hours of culture, cells have been stained with nuclear dye (5 μg/ml of Hoechst 33342 during 1 h at 37° C.) and analyzed using the FlowSight® Imaging Flow Cytometer for cellular cannibalism. Each of these compounds were classified according to their Z-score^47 and identified respectively 13 and 11 candidate compounds (FIGS. 4A, 4B, 4F and 4G). Then, the identified compounds were validated by combining flow cytometry approaches (in order to eliminate cytotoxic compounds by simultaneously monitoring the depolarization of the internal mitochondrial membrane and the plasma membrane permeability of the treated cells) with confocal microscopy approaches (to confirm the modulation of IR-induced cellular cannibalism by candidate compounds) (FIGS. 4C-E and 4H-J). […] Finally, 16 chemical compounds that are able to enhance the capacity of IR to trigger cellular cannibalism were identified (FIGS. 4E and 4J, Tables 1&2).

[2] = test system: CT26 cells; test: Anti-tumor vaccination assay, treated CT26 cells inoculated into BALB/c mice and rechallenge; assay type: in vivo, mouse; settings: for Frequency of mice showing a protective response: 8 Gy in presence of 10 μM compound for 24 hours; for Protective response after injection of cancer cells, compound alone: CT26 cells treated with 10 μM compound alone (no IR)
Procedure: FIG. 5. Identification of cannibalism modulators as immunogenic cell death inducers. MCA205 (A) or CT26 (E, I, M, Q) cells were treated with the indicated drugs. After 24 h of coculture with the indicated treatment, cell death was monitored by staining DiOC6(3) and PI, and the percentage of dying (DiOC6(3)^low PI^−, open bars) and dead (DiOC6(3)^low PI^+, closed bars) cells was determined by cytofluorometry. (B-D) MCA205 cells or (F-H, J-L, N-P, R-T) CT26 cells cocultured after x irradiation with the indicated compounds were inoculated subcutaneously into the right flank of […] or BALB/c mice, respectively. Seven days later, the mice were rechallenged with live cells injected into the opposite flank, and tumor growth was monitored (five mice per group).
FIG. 6. Tumor vaccination experiments. CT26 cells were treated for 24 hours with 10 μM VP331 (A, F, K), 10 μM Minaprine (B, G, L), 10 μM Lopa87 (C, H, M), 10 μM SG6163F (D, I, N), 10 μM Azaguanine-8 (8-aza) (E, J, O) alone or combined with 8 Gy ionizing radiation and inoculated (s.c.) into immunocompetent BALB/c mice, which were rechallenged at the opposite flank 7 days later with the same cancer cells. The percentage of tumor-free mice was evaluated three times a week for the following 38 days. Percentage of total tumor free mice (A-E), tumor free-mice at the first injection site (F to J, P) or at the second injection site (K to O, Q) are shown. (*P<0.05, **P<0.01, ***P<0.001, two-way ANOVA).
Considering that immunogenic cell death (ICD) inducers were identified (such as Digoxin, Digitoxin, Lanatoside C or Doxorubicin hydrochloride)^3, 4, 48-51) as IRCCE, the ability of these compounds to induce an antitumor immunity after radiotherapy was evaluated. First, a preclinical approaches was developed to study the immunological effects of IRCCE on two mouse models of carcinoma (colon CT26 carcinoma and fibrosarcoma MCA205). Initially, the ability of the combination of IRCCE+IR to trigger a specific anti-tumor immune response was appreciated using immunocompetent mice through anti-tumor vaccination assays. According to previously published studies^52, the injection of cancer cells succumbing to an immunogenic cell death (ICD) into immunocompetent mice must elicit a protective immune response that is specific for tumor antigens. Thus, 3×10^5 MCA205 cells were first treated with 10 μM of SG6163F for 24 hours. Then, treated cells were inoculated subcutaneously in 200 μl PBS into the lower flank of 8-week-old female C57BL/6 mice. One week later, 3×10^4 untreated control cells were inoculated into the contralateral flank of mice. Tumors were evaluated weekly using a common caliper. Animals bearing tumors that exceeded 20-25% body mass were euthanatized. […] Then, 3×10^6 CT26 cells were irradiated with 8 Gy in presence of 10 μM of SG6163F (FIGS. 5E and 5F), VP331 (FIGS. 5I and 5J), Minaprine dihydrochloride (FIGS. 5M and 5N) or LOPA87 (FIGS. 5Q and 5R) for 24 hours. Then, cells were inoculated as previously described subcutaneously in 200 μl PBS into the lower flank of 8-week-old female BALB/c mice. One week later, 5×10^5 untreated control cells were inoculated into the contralateral flank of mice and tumors were evaluated weekly using a common caliper. As previously mentioned, animals bearing tumors that exceeded 20-25% body mass were euthanatized. The percentage of dying cells in each condition was evaluated by determining with DiOC(6)3/IP staining (FIGS. 5E, 5I, 5M and 5Q). Finally, the ability of these compounds to repress the growth of cancer cells that have been injected 7 days after injection of irradiated and treated cancer cells was appreciated.
A second anti-tumor vaccination assay was done on CT26 mouse models of carcinoma as previously described. […]

[3] = first assay: CT26 cells, rechallenge one week later
[4] = second assay: CT26 cells, rechallenge 7 days later

Molecule | Enhancement of IR-mediated cellular cannibalism (IRCCE) [1] | further results
COc1ccc(C)cc1/C=N/[C@@H]1C[C@@H]2C[C@H]([C@H]1C)C2(C)C [VP331] | efficient cellular cannibalism enhancer | Frequency of mice showing a protective response [2, 3]: significant increase in the frequency of mice showing a protective response; Frequency of mice showing a protective response [2, 4]: Significant increases in the frequency of mice showing a protective response
C[C@H]1O[C@@H](O[C@H]2[C@@H](O)C[C@H](O[C@H]3[C@@H](O)C[C@H](O[C@H]4CC[C@@]5(C)[C@H](CC[C@@H]6[C@@H]5C[C@@H](O)[C@]5(C)[C@@H](C7=CC(=O)OC7)CC[C@]65O)C4)O[C@@H]3C)O[C@@H]2C)C[C@H](O)[C@@H]1O [Digoxin] | IRCCE; also recorded: efficient cellular cannibalism enhancer | –
Cc1cc(-c2ccccc2)nnc1NCCN1CCOCC1.Cl.Cl [Minaprine dihydrochloride] | efficient cellular cannibalism enhancer | Protective response after injection of cancer cells, compound alone ([2]; dihydrochloride): induce an increase of protective response; also recorded: intrinsic protective effects against tumor development; Frequency of mice showing a protective response [2, 3]: significant increase in the frequency of mice showing a protective response; Frequency of mice showing a protective response [2, 4]: Significant increases in the frequency of mice showing a protective response
COC(=O)Nc1nc2ccc(Sc3ccccc3)cc2[nH]1 [Fenbendazol] | no effect | –
CCOC(=O)n1ccn(C)c1=S [Carbimazole] | no effect | –
C[C@H]1O[C@@H](O[C@H]2[C@@H](O)C[C@H](O[C@H]3[C@@H](O)C[C@H](O[C@H]4CC[C@@]5(C)[C@H](CC[C@@H]6[C@@H]5CC[C@]5(C)[C@@H](C7=CC(=O)OC7)CC[C@]65O)C4)O[C@@H]3C)O[C@@H]2C)C[C@H](O)[C@@H]1O [Digitoxin] | IRCCE; also recorded: efficient cellular cannibalism enhancer | –
CC(C(=O)O)c1ccc(-c2ccccc2)c(F)c1 (stereo not drawn) [Flurbiprofen] | efficient cellular cannibalism enhancer | –
CC(=O)O[C@H]1C[C@H](O[C@H]2[C@@H](O)C[C@H](O[C@H]3[C@@H](O)C[C@H](O[C@H]4CC[C@@]5(C)[C@H](CC[C@@H]6[C@@H]5C[C@@H](O)[C@]5(C)[C@@H](C7=CC(=O)OC7)CC[C@]65O)C4)O[C@@H]3C)O[C@@H]2C)O[C@H](C)[C@H]1O[C@@H]1O[C@H](CO)[C@@H](O)[C@H](O)[C@H]1O [Lanatoside, Lanatoside C] | efficient cellular cannibalism enhancer | Enhancement of IR-mediated cellular cannibalism (IRCCE) ([1]; listed as Lanatoside C): IRCCE
COc1cc(O)ccc1/C=N/c1ccccc1C(=O)Nc1ccccc1 [RN-1-026] | efficient cellular cannibalism enhancer | –
COc1cccc2c1C(=O)c1c(O)c3c(c(O)c1C2=O)C[C@@](O)(C(=O)CO)C[C@@H]3O[C@H]1C[C@H](N)[C@H](O)[C@H](C)O1.Cl [Doxorubicine hydrochloride, Doxorubicin hydrochloride] | – | Enhancement of IR-mediated cellular cannibalism (IRCCE) ([1]; hydrochloride): efficient cellular cannibalism enhancer; Enhancement of IR-mediated cellular cannibalism (IRCCE) ([1]; listed as Doxorubicin hydrochloride, hydrochloride): IRCCE
CN1CCc2c(c3ccccc3n2Cc2ccccc2)C1 [Mebhydroline 1,5-napthalene disulfonate salt] | efficient cellular cannibalism enhancer | –
O=C(N/N=C/c1ncc[nH]1)NC12CC3CC(CC(C3)C1)C2 [VP450] | efficient cellular cannibalism enhancer | –
Nc1nc2[nH]nnc2c(=O)[nH]1 [8-Azaguanine] | efficient cellular cannibalism enhancer | Protective response after injection of cancer cells, compound alone [2]: induce an increase of protective response; Frequency of mice showing a protective response [2, 4]: Significant increases in the frequency of mice showing a protective response
CN(C)c1ccc(-c2cc(=O)[nH]c(-c3ccccc3)n2)cc1 [LOPA87] | efficient cellular cannibalism enhancer | Frequency of mice showing a protective response [2, 3]: significant increase in the frequency of mice showing a protective response; Frequency of mice showing a protective response [2, 4]: Significant increases in the frequency of mice showing a protective response
Myricetin | efficient cellular cannibalism enhancer | –
CN1c2ccccc2C(=O)N(c2ccccc2)C1c1ccc(-c2csc(CO)c2)s1 (stereo not drawn) [VP43] | efficient cellular cannibalism enhancer | –

Source: patent publication US11471463B2, “Enhancers of cellular cannibalism for use to sensitize tumors to radiation therapy” (Institut Gustave-Roussy, priority 2017, dated 2022)
